pIC50: −log10 of the molar value.

Test [1] concerns the target T1, Amine oxidase [flavin-containing] B (Rattus norvegicus, UniProt P19643).
T1 sequence (P19643 whole entry): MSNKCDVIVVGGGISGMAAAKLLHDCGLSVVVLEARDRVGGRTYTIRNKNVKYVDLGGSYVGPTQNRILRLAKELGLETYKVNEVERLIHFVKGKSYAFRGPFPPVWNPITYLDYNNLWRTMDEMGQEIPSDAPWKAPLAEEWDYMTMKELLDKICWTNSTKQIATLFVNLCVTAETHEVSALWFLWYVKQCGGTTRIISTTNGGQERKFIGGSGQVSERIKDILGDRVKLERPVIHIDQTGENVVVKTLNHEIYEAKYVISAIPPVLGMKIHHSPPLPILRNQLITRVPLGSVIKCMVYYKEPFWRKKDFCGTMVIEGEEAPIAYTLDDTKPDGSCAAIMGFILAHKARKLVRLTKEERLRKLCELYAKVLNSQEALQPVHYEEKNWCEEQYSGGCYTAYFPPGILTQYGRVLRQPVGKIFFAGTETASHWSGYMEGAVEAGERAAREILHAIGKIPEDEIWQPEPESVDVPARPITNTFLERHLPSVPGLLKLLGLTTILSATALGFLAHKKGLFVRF

For test [2], the target named is T2, Amine oxidase [flavin-containing] A (Rattus norvegicus, UniProt P21396).
T2 sequence (P21396 whole entry): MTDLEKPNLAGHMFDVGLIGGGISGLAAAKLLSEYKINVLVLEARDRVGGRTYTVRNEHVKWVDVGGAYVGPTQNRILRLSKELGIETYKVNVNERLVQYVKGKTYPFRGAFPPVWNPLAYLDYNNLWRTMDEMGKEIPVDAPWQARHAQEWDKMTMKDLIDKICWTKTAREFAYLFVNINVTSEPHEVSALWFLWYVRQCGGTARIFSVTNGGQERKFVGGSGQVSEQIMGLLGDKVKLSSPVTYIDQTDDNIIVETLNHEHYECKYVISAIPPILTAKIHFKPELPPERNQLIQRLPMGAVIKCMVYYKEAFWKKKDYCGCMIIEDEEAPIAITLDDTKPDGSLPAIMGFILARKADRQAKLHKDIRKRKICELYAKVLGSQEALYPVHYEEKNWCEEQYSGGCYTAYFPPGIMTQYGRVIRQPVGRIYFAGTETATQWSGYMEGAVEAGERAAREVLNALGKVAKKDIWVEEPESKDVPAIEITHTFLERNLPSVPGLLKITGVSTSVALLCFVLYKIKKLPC

For test [3], the target named is T2, Amine oxidase [flavin-containing] A. The source holds these as a separate data set.
Description: Compound was tested for its inhibitory effect on Monoamine oxidase A at 2 uM
Test [4] shares this target. This is another data set of the same source.
Description: (§1) Compound was tested for its inhibitory effect on MAO-A ( Monoamine Oxidase) at 100 uM
The target in test [5] is T1, Amine oxidase [flavin-containing] B. The source holds these as a separate data set.
Description: (§2) Compound was tested for its inhibitory effect on MAO-B ( Monoamine Oxidase) at 100 uM
The target is the same in test [6]. The source holds these as a separate data set.
Description: as §2
Test [7] has as its target T2, Amine oxidase [flavin-containing] A. This is another data set of the same source.
Description: as §1
Test [8] deals with T1, Amine oxidase [flavin-containing] B. This is another data set of the same source.
Description: (§3) Compound was tested for its inhibitory effect on Monoamine oxidase B at 3 uM
The target of test [9] is T2, Amine oxidase [flavin-containing] A. This is another data set of the same source.
Description: Compound was tested for its inhibitory effect on Monoamine oxidase A at 20 uM)
Test [10] shares this target. This is another data set of the same source.
Description: Compound was tested for its inhibitory effect on Monoamine oxidase A at 5 uM
The target in test [11] is T1, Amine oxidase [flavin-containing] B. The source holds these as a separate data set.
Description: Compound was tested for its inhibitory effect on MAO-B ( Monoamine Oxidase) at 4 uM
In test [12] the target is T2, Amine oxidase [flavin-containing] A. This is another data set of the same source.
Description: Compound was tested for its inhibitory effect on Monoamine oxidase A at 3 uM
For test [13], the target named is T1, Amine oxidase [flavin-containing] B. The source holds these as a separate data set.
Description: as §3
In test [14] the target is T2, Amine oxidase [flavin-containing] A. The source holds these as a separate data set.
Description: Compound was tested for its inhibitory effect on Monoamine oxidase A at 15 uM
Test [15] has the same target. This is another data set of the same source.
Description: Compound was tested for its inhibitory effect on Monoamine oxidase A at 1 uM
The target of test [16] is T1, Amine oxidase [flavin-containing] B. The source holds these as a separate data set.
The target of test [17] is T2, Amine oxidase [flavin-containing] A. This is another data set of the same source.
Description: Compound was tested for its inhibitory effect on Monoamine oxidase A at 30 uM
Test [18] has the same target. This is another data set of the same source.
Description: Compound was tested for its inhibitory effect on Monoamine oxidase A at 50 uM
The target is the same in test [19]. This is another data set of the same source.
Description: Compound was tested for its inhibitory effect on Monoamine oxidase A at 8 uM
Test [20] has as its target T1, Amine oxidase [flavin-containing] B. The source holds these as a separate data set.
Description: Compound was tested for its inhibitory effect on Monoamine oxidase B at 40 uM
The target in test [21] is T2, Amine oxidase [flavin-containing] A. This is another data set of the same source.
Description: Compound was tested for its inhibitory effect on MAO-A ( Monoamine Oxidase) at 50 uM

Regarding `Cc1c(C)c2ccc(/C=C/c3ccccc3)cc2oc1=O`, the pIC50 is 7.55 in test [1] and 6.39 in [2].

For the compound `Cc1c(C)c2ccc(OCCc3ccccc3)cc2oc1=O`, the pIC50 in test [2] was 6.00.

In the case of `CC1C(=O)Nc2cc(OCc3ccccc3)ccc2C1C` (centres undefined), in [3], the inhibition at 2 µM came to 0%. The compound also gave a pIC50 in [1] of 6.20.

As to `Cc1c(C)c2ccc(OCc3cccc(N)c3)cc2oc1=O`, the pIC50 is 7.46 in test [1] and 6.00 in test [2].

In the case of `O=c1ccc2cc(O[C@@H]3O[C@H](CO)[C@@H](O)[C@H](O)[C@H]3O)c(O)cc2o1` [ESCULIN], the inhibition at 100 µM is 9% in test [4] and 7% in test [5].

Turning to `O=c1ccc2cc(O[C@H]3O[C@H](CO)[C@@H](O)[C@@H](O)[C@@H]3O)c(OCc3ccccc3)cc2o1`, the values for the inhibition at 100 µM in test [6] and in test [7] were 11% and 15%, respectively.

In test [8], `O=c1cc(-c2ccccc2)oc2ccc(OCc3ccccc3)cc12` yielded an inhibition at 3 µM of 38%.

In test [1], `O=c1oc2cc(OCc3ccccc3)ccc2s1` showed a pIC50 of 4.23. The same compound displayed an inhibition at 20 µM in [9] of 0%.

For the compound `c1ccc(COc2ccc3c(c2)OCC3)cc1`, the figures for the pIC50 in test [1] and in test [2] were 6.30 and 4.40, respectively.

Regarding `O=C1NC(=O)c2cc(OCc3ccccc3)ccc21`, in [10], the inhibition at 5 µM came to 25%.

Take `O=C1CCc2ccc(OCc3ccccc3)cc2O1`: the inhibition at 4 µM in test [11] worked out at 20%.

As to `Cc1c(-c2ccccc2)c(=O)oc2cc(OCc3ccccc3)ccc12`, the inhibition at 3 µM in [12] is 4%; in test [13], 8%.

`O=c1cc(O)c2ccc(OCc3ccccc3)cc2o1` gave a pIC50 in [1] of 5.80. In test [14], this compound displayed an inhibition at 15 µM of 26%.

Regarding `O=c1cc(-c2ccccc2)oc2cc(OCc3ccccc3)ccc12`, the inhibition at 1 µM in [15] and in test [16] was 6% each time.

In the case of `O=c1ccc2ccccc2o1` [COUMARIN], the pIC50 in test [1] was 4.92; in [2], 4.39.

On to `O=c1ccc2cc(OCc3ccccc3)c(O)cc2o1`, for which the negative logarithm of the IC50 (pIC50) was 5.69 in [1] and 4.63 in test [2].

On to `c1ccc(COc2ccc3c(c2)OCO3)cc1`, for which the inhibition at 30 µM in test [17] came to 18%. In test [1], this compound had a negative-log IC50 (pIC50) of 5.62.

`O=c1ccoc2ccc(OCc3ccccc3)cc12`: the negative logarithm of the IC50 (pIC50) is 6.25 in test [1] and 5.17 in test [2].

Consider `c1ccc(COc2ccc3ccoc3c2)cc1`, for which, in [18], the inhibition at 50 µM stood at 30%. In addition, the negative logarithm of the IC50 (pIC50) in [1] is 5.74.

As to `Cc1c(C)c2ccc(OC(C)c3ccccc3)cc2oc1=O` (centres undefined), the pIC50 in test [1] was 6.49; in test [2] it was 5.45.

In [1], `c1ccc(COc2ccc3ccccc3c2)cc1` gave a pIC50 of 5.59. The compound also registered an inhibition at 8 µM in test [19] of 0%.

As for `O=C1OCc2ccc(OCc3ccccc3)cc21`, the pIC50 in test [1] was 6.63; in test [2], 5.44.

With `O=C1CCc2ccc(OCc3ccccc3)cc2N1`, the pIC50 in test [1] was 5.98; in [2] it was 3.99.

In the case of `O=c1cc(C(F)(F)F)c2ccc(OCc3ccccc3)cc2o1`, the pIC50 in [1] is 5.86.

In test [20], `Cc1ccc(S(=O)(=O)Nc2ccc3c(C)c(C)c(=O)oc3c2)cc1` displayed an inhibition at 40 µM of 29%. The compound further had a negative logarithm of the IC50 (pIC50) in [2] of 4.17.

Regarding `CC(=O)Nc1cccc(COc2ccc3c(C)c(C)c(=O)oc3c2)c1`, the negative-log IC50 (pIC50) in [2] is 5.15.

Take `Cc1cc(=O)c2cc(OCc3ccccc3)ccc2o1`: the negative-log IC50 (pIC50) in [1] is 6.90; in test [2] it was 4.66.

In test [21], `COc1cc2ccc(=O)oc2cc1OCc1ccccc1` registered an inhibition at 50 µM of 18%. Also, the negative-log IC50 (pIC50) in test [1] was 5.17.

Turning to `Cc1c(C)c2ccc(OCc3ccc(F)c(O)c3)cc2oc1=O`, the pIC50 in [1] is 8.13; in test [2] it was 6.94.

For the compound `O=c1ccoc2cc(OCc3ccccc3)ccc12`, the results for the pIC50 in test [1] and in test [2] were 5.98 and 4.79, respectively.

Source of the values: ChEMBL document CHEMBL1133545, “Inhibition of monoamine oxidases by functionalized coumarin derivatives: biological activities, QSARs, and 3D-QSARs” (J Med Chem, 2000).
